pKi: −log10 of the molar value.
biological target: Mcl-1 (Homo sapiens (Human), UniProt Q07820); assay: Fluorescence polarization anisotropy (FPA) competition assay, FITC-Bak or FITC-Bim BH3 peptide; assay type: binding; details: read-out: Ki for Inhibition of Mcl-1 by FPA assay
Sequence (Q07820 172-327): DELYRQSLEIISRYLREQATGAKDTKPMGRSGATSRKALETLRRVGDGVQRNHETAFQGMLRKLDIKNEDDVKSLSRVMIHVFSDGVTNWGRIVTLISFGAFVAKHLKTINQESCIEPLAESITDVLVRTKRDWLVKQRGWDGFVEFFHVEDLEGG

Row | Compound | pKi
1 | Cc1cc(OCCCc2c3n(c4c(-c5c(C)nn(C)c5C)c(Cl)ccc24)[C@H](C)CN(c2ccc(OCC4CCN(C)C4)c4c2cc(C(=O)O)n4C)C3=O)cc(C)c1Cl (stereo partly shown) [Example 319, 4-((M, R)-7-Chloro-10-(3-(4-chloro-3,5-dimethylphenoxy)propyl)-4-methyl-1-oxo-6-(1,3,5-trimethyl-1H-pyrazol-4-yl)-3,4-dihydropyrazino[1,2-a]indol-2(1H)-yl)-1-methyl-7-((1-methylpyrrolidin-3-yl)methoxy)-1H-indole-2-carboxylic acid] | 8.49
2 | Cc1cc(OCCCc2c3n(c4c(-c5c(C)nn(C)c5C)c(Cl)ccc24)CCCN(Cc2cc(C(=O)O)cc(N4CCN(S(=O)(=O)CCc5ccccc5)CC4)n2)C3=O)cc(C)c1Cl [Example 38, 2-((8-Chloro-11-(3-(4-chloro-3,5-dimethylphenoxy)propyl)-1-oxo-7-(1,3,5-trimethyl-1H-pyrazol-4-yl)-4,5-dihydro-1H-[1,4]diazepino[1,2-a]indol-2(3H)-yl)methyl)-6-(4-(phenethylsulfonyl)piperazin-1-yl)isonicotinic acid] | 7.21
3 | Cc1cc(OCCCc2c(C(=O)N3CCN(c4cccc(C(=O)O)c4)CC3)n(Cc3cccnc3)c3c(-c4c(C)nn(C)c4C)c(Cl)ccc23)cc(C)c1Cl [Example 735, 3-(4-(6-chloro-3-(3-(4-chloro-3,5-dimethylphenoxy)propyl)-1-(pyridin-3-ylmethyl)-7-(1,3,5-trimethyl-1H-pyrazol-4-yl)-1H-indole-2-carbonyl)piperazin-1-yl)benzoic acid] | 7.28
4 | Cc1cc(OCCCc2c3n(c4c(-c5c(C)nn(C)c5C)c(Cl)ccc24)[C@H](C)CN(c2cn(C)c4cc(C(F)(F)F)ccc24)C3=O)cc(C)c1Cl [Example 199, (4R)-7-chloro-10-[3-(4-chloro-3,5-dimethyl-phenoxy)propyl]-4-methyl-2-[1-methyl-6-(trifluoromethyl)indol-3-yl]-6-(1,3,5-trimethylpyrazol-4-yl)-3,4-dihydropyrazino[1,2-a]indol-1-one] | 7.92
5 | Cc1cc(OCCCc2c(C(=O)NC3CCC(C(=O)O)CC3)[nH]c3c(-c4c(C)ncnc4C)c(Cl)ccc23)cc(C)c1Cl (single isomer, unassigned) [Example 746, 4-(6-Chloro-3-(3-(4-chloro-3,5-dimethylphenoxy)propyl)-7-(4,6-dimethylpyrimidin-5-yl)-1H-indole-2-carboxamido)cyclohexane-1-carboxylic acid] | 8.28
6 | Cc1nn(C)c(C)c1-c1c(Cl)ccc2c(CCCOCC3CC3)c3n(c12)[C@H](C)CN(c1cn(C)c2ccc(C(=O)O)cc12)C3=O [Example 404, (R)-3-(7-chloro-10-(3-(cyclopropylmethoxy)propyl)-4-methyl-1-oxo-6-(1,3,5-trimethyl-1H-pyrazol-4-yl)-3,4-dihydropyrazino[1,2-a]indol-2(1H)-yl)-1-methyl-1H-indole-5-carboxylic acid] | 7.36
7 | Cc1cc(OCCCc2c3n(c4c(-c5c(C)nn(C)c5C)c(Cl)ccc24)CCCN(c2cc(C(=O)O)c4c(c2)nnn4C)C3=O)cc(C)c1Cl [Example 5, 6-[8-Chloro-11-[3-(4-chloro-3,5-dimethyl-phenoxy)propyl]-1-oxo-7-(1,3,5-trimethylpyrazol-4-yl)-4,5-dihydro-3H-[1,4]diazepino[1,2-a]indol-2-yl]-3-methyl-benzotriazole-4-carboxylic acid] | 8.57
8 | Cc1cc(OCCCc2c(C(=O)N(C)c3ccc(C(=O)O)cc3)n(CCN3CCOCC3)c3c(-c4c(C)nn(C)c4C)c(Cl)ccc23)cc(C)c1Cl [Example 731, 4-[[6-Chloro-3-[3-(4-chloro-3,5-dimethyl-phenoxy)propyl]-1-(2-morpholinoethyl)-7-(1,3,5-trimethylpyrazol-4-yl)indole-2-carbonyl]-methyl-amino]benzoic acid] | < 6.70
9 | Cc1cc(OCCCc2c3n(c4c(-c5c(C)nn(C)c5C)c(Cl)ccc24)[C@H](C)[C@@H](C)N(c2cc(C(=O)O)c4ccn(C)c4c2)C3=O)cc(C)c1Cl [Example 143, 6-((3R,4R)-7-chloro-10-(3-(4-chloro-3,5-dimethylphenoxy)propyl)-3,4-dimethyl-1-oxo-6-(1,3,5-trimethyl-1H-pyrazol-4-yl)-3,4-dihydropyrazino[1,2-a]indol-2(1H)-yl)-1-methyl-1H-indole-4-carboxylic acid] | 8.12
10 | Cc1cc(OCCCc2c3n(c4c(-c5c(C)nn(C)c5C)c(Cl)ccc24)CCCN(Cc2cc(C(=O)O)cc(N4CCN(C(=O)c5ccco5)CC4)n2)C3=O)cc(C)c1Cl [Example 9, 2-((8-Chloro-11-(3-(4-chloro-3,5-dimethylphenoxy)propyl)-1-oxo-7-(1,3,5-trimethyl-1H-pyrazol-4-yl)-4,5-dihydro-1H-[1,4]diazepino[1,2-a]indol-2(3H)-yl)methyl)-6-(4-(furan-2-carbonyl)piperazin-1-yl)isonicotinic acid] | 7.70
11 | Cc1cc(OCCCc2c3n(c4c(-c5c(C)nn(C)c5C)c(Cl)ccc24)CCCN(Cc2cc(C(=O)O)cc(N4CCN(C(=O)OC(C)(C)C)CC4)n2)C3=O)cc(C)c1Cl [Example 8, 2-(4-(Tert-butoxycarbonyl)piperazin-1-yl)-6-((8-chloro-11-(3-(4-chloro-3,5-dimethylphenoxy)propyl)-1-oxo-7-(1,3,5-trimethyl-1H-pyrazol-4-yl)-4,5-dihydro-1H-[1,4]diazepino[1,2-a]indol-2(3H)-yl)methyl)isonicotinic acid] | 7.57
12 | Cc1cc(OCCCc2c3n(c4c(-c5c(C)nn(C)c5C)c(Cl)ccc24)CCCN(c2cc4c(c(C(=O)O)c2)OCC4)C3=O)cc(C)c1Cl [Example 18, 5-[8-chloro-11-[3-(4-chloro-3,5-dimethyl-phenoxy)propyl]-1-oxo-7-(1,3,5-trimethylpyrazol-4-yl)-4,5-dihydro-3H-[1,4]diazepino[1,2-a]indol-2-yl]-2,3-dihydrobenzofuran-7-carboxylic acid] | 8.24
13 | Cc1cc(OCCCc2c3n(c4c(-c5c(C)nn(C)c5C)c(Cl)ccc24)CCCN(Cc2cc(C(=O)O)cc(N4CCN(C(=O)N(C)C)CC4)n2)C3=O)cc(C)c1Cl [Example 34, 2-((8-Chloro-11-(3-(4-chloro-3,5-dimethylphenoxy)propyl)-1-oxo-7-(1,3,5-trimethyl-1H-pyrazol-4-yl)-4,5-dihydro-1H-[1,4]diazepino[1,2-a]indol-2(3H)-yl)methyl)-6-(4-(dimethylcarbamoyl)piperazin-1-yl)isonicotinic acid] | 7.92
14 | Cc1cc(CCCCc2c(C(=O)N3CCN(c4ccc(C(=O)O)nc4)CC3)n(Cc3cccnc3)c3c(-c4c(C)nn(C)c4C)c(Cl)ccc23)cc(C)c1Cl [Example 737, 5-(4-(6-Chloro-3-(4-(4-chloro-3,5-dimethylphenyl)butyl)-1-(pyridin-3-ylmethyl)-7-(1,3,5-trimethyl-1H-pyrazol-4-yl)-1H-indole-2-carbonyl)piperazin-1-yl)picolinic acid] | 6.85
15 | Cc1cc(CCCCc2c(C(=O)N3CCN(c4ccccc4C(=O)O)CC3)n(Cc3cccnc3)c3c(-c4c(C)nn(C)c4C)c(Cl)ccc23)cc(C)c1Cl [Example 739, 2-(4-(6-Chloro-3-(4-(4-chloro-3,5-dimethylphenyl)butyl)-1-(pyridin-3-ylmethyl)-7-(1,3,5-trimethyl-1H-pyrazol-4-yl)-1H-indole-2-carbonyl)piperazin-1-yl)benzoic acid] | 7.14
16 | Cc1cc(OCCCc2c3n(c4c(-c5c(C)nn(C)c5C)c(Cl)ccc24)[C@H](C)CN(c2cc(O)cc4c2cc(C(=O)O)n4C)C3=O)cc(C)c1Cl [Example 303, (P, R)-4-(7-chloro-10-(3-(4-chloro-3,5-dimethylphenoxy)propyl)-4-methyl-1-oxo-6-(1,3,5-trimethyl-1H-pyrazol-4-yl)-3,4-dihydropyrazino[1,2-a]indol-2(1H)-yl)-6-hydroxy-1-methyl-1H-indole-2-carboxylic acid] | > 9.00
17 | Cc1cc(OCCCc2c3n(c4c(-c5c(C)nn(C)c5C)c(Cl)ccc24)CCCN(c2cc(C(=O)O)c4c(cnn4C)c2)C3=O)cc(C)c1Cl [Example 85, 5-[8-Chloro-11-[3-(4-chloro-3,5-dimethyl-phenoxy)propyl]-1-oxo-7-(1,3,5-trimethylpyrazol-4-yl)-4,5-dihydro-3H-[1,4]diazepino[1,2-a]indol-2-yl]-1-methyl-indazole-7-carboxylic acid] | 8.82
18 | Cc1cc(OCCCc2c3n(c4c(-c5c(C)nn(C)c5C)c(Cl)ccc24)[C@H](C)CN(c2ccc(F)c4cc[nH]c24)C3=O)cc(C)c1Cl [Example 446, (R)-7-Chloro-10-(3-(4-chloro-3,5-dimethylphenoxy)propyl)-2-(4-fluoro-1H-indol-7-yl)-4-methyl-6-(1,3,5-trimethyl-1H-pyrazol-4-yl)-3,4-dihydropyrazino[1,2-a]indol-1(2H)-one] | 8.09
19 | Cc1cc(OCCCc2c(C(=O)NC3CCC(C(=O)O)CC3)[nH]c3c(-c4c(C)ncnc4C)c(Cl)ccc23)cc(C)c1Cl (single isomer, unassigned) [Example 747, 4-(6-Chloro-3-(3-(4-chloro-3,5-dimethylphenoxy)propyl)-7-(4,6-dimethylpyrimidin-5-yl)-1H-indole-2-carboxamido)cyclohexane-1-carboxylic acid] | 7.80
20 | Cc1cc(OCCCc2c3n(c4c(-c5c(C)nn(C)c5C)c(Cl)ccc24)CCCN(C2=CNC(C(=O)O)=C(O)N2)C3=O)cc(C)c1Cl [Example 73, 5-(8-Chloro-11-(3-(4-chloro-3,5-dimethylphenoxy)propyl)-1-oxo-7-(1,3,5-trimethyl-1H-pyrazol-4-yl)-4,5-dihydro-1H-[1,4]diazepino[1,2-a]indol-2(3H)-yl)-3-hydroxy-1,4-dihydropyrazine-2-carboxylic acid] | > 9.00
21 | Cc1cc(CCCCc2c(C(=O)N3CCN(c4ccccc4C(=O)O)CC3)[nH]c3c(-c4c(C)nn(C)c4C)c(Cl)ccc23)cc(C)c1Cl [Example 744, 2-(4-(6-Chloro-3-(4-(4-chloro-3,5-dimethylphenyl)butyl)-7-(1,3,5-trimethyl-1H-pyrazol-4-yl)-1H-indole-2-carbonyl)piperazin-1-yl)benzoic acid] | 7.52
22 | Cc1cc(OCCCc2c3n(c4c(-c5c(C)nn(CC(=O)O)c5C)c(Cl)ccc24)CCCN(c2ccccc2)C3=O)cc(C)c1Cl [Example 136, 2-(4-(8-Chloro-11-(3-(4-chloro-3,5-dimethylphenoxy)propyl)-1-oxo-2-phenyl-2,3,4,5-tetrahydro-1H-[1,4]diazepino[1,2-a]indol-7-yl)-3,5-dimethyl-1H-pyrazol-1-yl)acetic acid] | > 9.00

From US11596639B2, “Substituted indole Mcl-1 inhibitors” (Vanderbilt University, priority 2016, dated 2023)
